# Assays:
# Assay type in all cases: physicochemical
# [1] = Solid-state stability of the crystalline solvate (observation); details: desolvates on exposure to air
# Description: A variable methanol solvate of ABC is produced by dissolving ABC in warm (55° C.) methanol (about 200 mg/mL) and then cooling (−5° C.) to force precipitation of a white powder. The resulting powder is examined by XRPD while still wet (FIG. 1, top pattern). Single crystals are grown by slow evaporation of methanol into an antisolvent (preferably ethyl acetate) or by slowly cooling a saturated solution from 50° C. to 0° C. over the course of several hours, and not exposed to air, to obviate evaporation of the solvate and the collapse of the crystalline lattice. Single crystal X-ray diffraction (SCXRD) data is undertaken at 100° K to improve diffraction quality as well as prevent desolvation. […] The single crystal is determined to be Form I of variable methanol solvate of ABC (FIG. 2) having about 2.5-3 molecules of methanol, preferably about 2.75 molecules of methanol. Form I of variable methanol solvate of ABC is unstable.
# [2] = Dynamic vapor sorption (DVS) / sorption isotherm
# [3] = Thermogravimetric analysis (TGA), onset of decomposition; details: heating rate 10.0° C./min, nitrogen; FIG. 6
# Description: Analysis—TGA (Thermo Gravimetric Analysis) TGA measurements are recorded using TA Q500 instrument. The samples are weighed in aluminum pans. TGA investigations are performed at a heating rate of 10.0° C./min over a temperature range of 30-350° C., purging with nitrogen at a flow rate of 60 mL/min.
stability of the solid-state form [1],"H2O absorbed by weight (DVS) ([2]; between 0-90% relative humidity (RH), FIG. 7)","drop in weight during desorption ([2]; desorption at 20% RH, consistent with loss of a molecule of water)","H2O lost in one desorption step (sorption isotherm) ([2]; desorption between 30-20% RH, FIG. 8)",transformation from Form II anhydrous ABC to Form III of hydrate of ABC ([2]; humidity sorption/desorption),onset of decomposition (TGA) [3],Structure (SMILES)
unstable,–,–,–,–,–,CCN1CCN(Cc2ccc(Nc3ncc(F)c(-c4cc(F)c5nc(C)n(C(C)C)c5c4)n3)nc2)CC1
–,about 8%,about 4%,4%,reversible,about 320 °C,CCN1CCN(Cc2ccc(Nc3ncc(F)c(-c4cc(F)c5nc(C)n(C(C)C)c5c4)n3)nc2)CC1 [Form II anhydrous ABC]

# — patent publication US12011442B2, “Solid-state forms of Abemaciclib, their use and preparation” (MACFARLAN SMITH LIMITED, priority 2018, dated 2024)
